# Measured values reported in patent US20140120232A1, “ACID TASTE/ACID SMELL-REDUCING AGENT” (T. HASEGAWA CO., LTD., priority 2011, published 2014).
# Experiment: Sensory evaluation of mayonnaise containing the agent
# Details: ten panels
# Procedure: Sensory evaluation of each drink was carried out by ten panels. […] The piercing aroma characteristic to aldehydes is a characteristic aroma common to every aldehyde and refers to an irritant off-smell giving an image of deteriorated oils and fats, soap, metals, Houttuynia cordata, etc. The judgment of smell was performed by comparing the effects at different concentrations of the acid taste and/or acid smell-reducing agent, and a concentration giving the highest acid taste/acid smell quality was selected.
# A mayonnaise base material (100 g) was prepared by mixing 12 g of edible vinegar, 75 g of vegetable oils and fats, and 13 g of an aqueous solution containing egg yolk and spices. To the resulting mixture was added (Z,Z)-4,7-tridecadienal as the acid taste and/or acid smell-reducing agent of the present invention in concentrations shown in the following Table 11 to give mayonnaise containing the agent, followed by sensory evaluation as in Example 1.
compound,measurement,setting,value
"CCCCC/C=C\C/C=C\CCC=O [(Z,Z)-4,7-tridecadienal]","A: number of panels, acid taste/acid smell extreme and cause irritation",0.005 ppt,10
same,"B: number of panels, acid taste/acid smell slightly strong and slightly cause irritation",0.005 ppt,0
same,"C: number of panels, acid taste/acid smell slightly unpleasant",0.005 ppt,0
same,Flavor judgment: number of panels who judged acid taste/acid smell quality the highest,0.005 ppt,0
same,"N: number of panels, irritation of acid reduced to give a mild acid taste",0.005 ppt,0
same,"X: number of panels, acid taste reduced but piercing odor characteristic to aldehydes unpleasant",0.005 ppt,0
same,"A: number of panels, acid taste/acid smell extreme and cause irritation",0.02 ppt,8
same,"B: number of panels, acid taste/acid smell slightly strong and slightly cause irritation",0.02 ppt,2
same,"C: number of panels, acid taste/acid smell slightly unpleasant",0.02 ppt,0
same,Flavor judgment: number of panels who judged acid taste/acid smell quality the highest,0.02 ppt,0
same,"N: number of panels, irritation of acid reduced to give a mild acid taste",0.02 ppt,0
same,"X: number of panels, acid taste reduced but piercing odor characteristic to aldehydes unpleasant",0.02 ppt,0
same,"A: number of panels, acid taste/acid smell extreme and cause irritation",0.1 ppt,7
same,"B: number of panels, acid taste/acid smell slightly strong and slightly cause irritation",0.1 ppt,2
same,"C: number of panels, acid taste/acid smell slightly unpleasant",0.1 ppt,1
same,Flavor judgment: number of panels who judged acid taste/acid smell quality the highest,0.1 ppt,0
same,"N: number of panels, irritation of acid reduced to give a mild acid taste",0.1 ppt,0
same,"X: number of panels, acid taste reduced but piercing odor characteristic to aldehydes unpleasant",0.1 ppt,0
same,"A: number of panels, acid taste/acid smell extreme and cause irritation",0.2 ppt,3
same,"B: number of panels, acid taste/acid smell slightly strong and slightly cause irritation",0.2 ppt,4
same,"C: number of panels, acid taste/acid smell slightly unpleasant",0.2 ppt,3
same,Flavor judgment: number of panels who judged acid taste/acid smell quality the highest,0.2 ppt,0
same,"N: number of panels, irritation of acid reduced to give a mild acid taste",0.2 ppt,0
same,"X: number of panels, acid taste reduced but piercing odor characteristic to aldehydes unpleasant",0.2 ppt,0
same,"A: number of panels, acid taste/acid smell extreme and cause irritation",0.5 ppt,0
same,"B: number of panels, acid taste/acid smell slightly strong and slightly cause irritation",0.5 ppt,2
same,"C: number of panels, acid taste/acid smell slightly unpleasant",0.5 ppt,3
same,Flavor judgment: number of panels who judged acid taste/acid smell quality the highest,0.5 ppt,1
same,"N: number of panels, irritation of acid reduced to give a mild acid taste",0.5 ppt,5
same,"X: number of panels, acid taste reduced but piercing odor characteristic to aldehydes unpleasant",0.5 ppt,0
same,"A: number of panels, acid taste/acid smell extreme and cause irritation",1 ppb,0
same,"B: number of panels, acid taste/acid smell slightly strong and slightly cause irritation",1 ppb,0
same,"C: number of panels, acid taste/acid smell slightly unpleasant",1 ppb,2
same,Flavor judgment: number of panels who judged acid taste/acid smell quality the highest,1 ppb,0
same,"N: number of panels, irritation of acid reduced to give a mild acid taste",1 ppb,4
same,"X: number of panels, acid taste reduced but piercing odor characteristic to aldehydes unpleasant",1 ppb,4
same,"A: number of panels, acid taste/acid smell extreme and cause irritation",1 ppt,0
same,"B: number of panels, acid taste/acid smell slightly strong and slightly cause irritation",1 ppt,2
same,"C: number of panels, acid taste/acid smell slightly unpleasant",1 ppt,2
same,Flavor judgment: number of panels who judged acid taste/acid smell quality the highest,1 ppt,1
same,"N: number of panels, irritation of acid reduced to give a mild acid taste",1 ppt,6
same,"X: number of panels, acid taste reduced but piercing odor characteristic to aldehydes unpleasant",1 ppt,0
same,"A: number of panels, acid taste/acid smell extreme and cause irritation",5 ppt,0
same,"B: number of panels, acid taste/acid smell slightly strong and slightly cause irritation",5 ppt,0
same,"C: number of panels, acid taste/acid smell slightly unpleasant",5 ppt,2
same,Flavor judgment: number of panels who judged acid taste/acid smell quality the highest,5 ppt,4
same,"N: number of panels, irritation of acid reduced to give a mild acid taste",5 ppt,8
same,"X: number of panels, acid taste reduced but piercing odor characteristic to aldehydes unpleasant",5 ppt,0
same,"A: number of panels, acid taste/acid smell extreme and cause irritation",10 ppb,0
same,"B: number of panels, acid taste/acid smell slightly strong and slightly cause irritation",10 ppb,0
same,"C: number of panels, acid taste/acid smell slightly unpleasant",10 ppb,1
same,Flavor judgment: number of panels who judged acid taste/acid smell quality the highest,10 ppb,0
same,"N: number of panels, irritation of acid reduced to give a mild acid taste",10 ppb,2
same,"X: number of panels, acid taste reduced but piercing odor characteristic to aldehydes unpleasant",10 ppb,7
same,"A: number of panels, acid taste/acid smell extreme and cause irritation",20 ppt,0
same,"B: number of panels, acid taste/acid smell slightly strong and slightly cause irritation",20 ppt,0
same,"C: number of panels, acid taste/acid smell slightly unpleasant",20 ppt,3
same,Flavor judgment: number of panels who judged acid taste/acid smell quality the highest,20 ppt,4
same,"N: number of panels, irritation of acid reduced to give a mild acid taste",20 ppt,7
same,"X: number of panels, acid taste reduced but piercing odor characteristic to aldehydes unpleasant",20 ppt,0
same,"A: number of panels, acid taste/acid smell extreme and cause irritation",50 ppb,0
same,"B: number of panels, acid taste/acid smell slightly strong and slightly cause irritation",50 ppb,0
same,"C: number of panels, acid taste/acid smell slightly unpleasant",50 ppb,1
same,Flavor judgment: number of panels who judged acid taste/acid smell quality the highest,50 ppb,0
same,"N: number of panels, irritation of acid reduced to give a mild acid taste",50 ppb,1
same,"X: number of panels, acid taste reduced but piercing odor characteristic to aldehydes unpleasant",50 ppb,8
same,"A: number of panels, acid taste/acid smell extreme and cause irritation",100 ppt,0
same,"B: number of panels, acid taste/acid smell slightly strong and slightly cause irritation",100 ppt,1
same,"C: number of panels, acid taste/acid smell slightly unpleasant",100 ppt,4
same,Flavor judgment: number of panels who judged acid taste/acid smell quality the highest,100 ppt,0
same,"N: number of panels, irritation of acid reduced to give a mild acid taste",100 ppt,4
same,"X: number of panels, acid taste reduced but piercing odor characteristic to aldehydes unpleasant",100 ppt,1
same,"A: number of panels, acid taste/acid smell extreme and cause irritation",500 ppt,0
same,"B: number of panels, acid taste/acid smell slightly strong and slightly cause irritation",500 ppt,0
same,"C: number of panels, acid taste/acid smell slightly unpleasant",500 ppt,4
same,Flavor judgment: number of panels who judged acid taste/acid smell quality the highest,500 ppt,0
same,"N: number of panels, irritation of acid reduced to give a mild acid taste",500 ppt,4
same,"X: number of panels, acid taste reduced but piercing odor characteristic to aldehydes unpleasant",500 ppt,2
